Experimental findings from patent publication US20100055198A1, “HARD SURFACE CLEANING AND DISINFECTING COMPOSITION” (Arkema Inc., priority 2007, published 2010) are described below.

Test [1] deals with gram-positive and gram-negative bacteria. Put plainly: Disinfection properties overall (AOAC Use-Dilution). It is filed as cell-based. The settings on record: low concentration (e.g. 3%), pH 7. As for the experimental part: (§1) The testing was performed in accordance with the protocols outlined in “Use-dilution Method”, Protocols 955.14, 955.15 and 964.02 described in Chapter 6 of “Official Methods of Analysis”, 16th Edition, of the Association of Official Analytical Chemists; “Germicidal and Detergent Sanitizing Action of Disinfectants”, 960.09 described in Chapter 6 of “Official Methods of Analysis”, 15th Edition, of the Association of Official Analytical Chemists; or American Society for Testing and Materials (ASTM) E 1054-91 the contents of which are herein incorporated by reference. This test is also commonly referred to as the “AOAC Use-Dilution Test Method”. Testing was conducted starting with 10^5 to 10^6 CFU/ml bacteria concentration, 10 ml of the cleaning composition described in each example and test protocol outlined in the “AOAC Use-dilution Method”.

A further test has as its system S. choleraesuis. As to the kind of experiment: AOAC Use-Dilution disinfection test, S. choleraesuis. Type of test: cell-based, Salmonella choleraesuis. Here is the method:
as §1

A further test has as its system P. aeruginosa. Put plainly: AOAC Use-Dilution disinfection test, P. aeruginosa. Type of test: cell-based, Pseudomonas aeruginosa. Here is the method:
as §1

For a further test, the system named is S. aureus. Put plainly: AOAC Use-Dilution disinfection test, S. aureus. Type of test: cell-based, Staphylococcus aureus. As for the experimental part:
as §1

[2] abbreviates: pH 4.4, time 0 min (starting count).
Where [3] appears, read: pH 7.7, time 0 min (starting count).

For the compound `CC(C)O` [isopropanol, Isopropanol], in test [1], the “disinfectant property, in words” value is listed as “slight disinfectant property”.

With hydrogen peroxide [3% H2O2], the “S. choleraesuis (CFU/ml)” value in the test with S. choleraesuis (setting [2]) is on record as 2.9 × 10^5 CFU/ml; with S. choleraesuis (setting [3]), 2.4 × 10^5 CFU/ml. Besides, the “P. aeruginosa (CFU/ml)” value with P. aeruginosa (setting [2]) is reported as 1.7 × 10^5 CFU/ml; with P. aeruginosa (setting [3]), 1.5 × 10^5 CFU/ml. For the same compound, the “killing gram positive bacteria (Staphylococus aureus), in words” value in the test with S. aureus (acidic pH) and with S. aureus (neutral pH) was “not effective” throughout. For the same compound, the “S. aureus (CFU/ml)” value in the test on S. aureus (setting [2]) is reported as 1.6 × 10^5 CFU/ml; in the test on S. aureus (pH 4.4, time 5 min, average from two replicates), 4.3 × 10^3 *^1 CFU/ml; in the test with S. aureus (setting [3]) it was 1.3 × 10^5 CFU/ml; with S. aureus (pH 7.7, time 5 min), 6.0 × 10^2 CFU/ml.
